Test results as given in patent US20090117089A1, “GLYCOLIPIDS AND ANALOGUES THEREOF AS ANTIGENS FOR NK T CELLS” (The Rockefeller University, priority 2005, published 2009).

What was measured:
J558 tumor cells = assay: Tumor protection assay, J558 plasmacytoma; type: in vivo, mouse; details: for protection from J558 tumor challenge / tumor growth after single agent alone: challenge 14 days later; for tumor growth after single agent alone: glycolipid alone (2 or 0.2 μg/mouse) or irradiated cells alone; for protective immunity to irradiated tumor injected i.v. (adjuvant comparison): vs αCD40 and poly IC
Method: 2×10^7 irradiated J558-Ld^− cells, were injected i.v. or s.c. into Balb/c mice with or without α-Gal Cer as a DC maturation stimulus. In some experiments we compared α-Gal Cer to agonistic anti-CD40 mAb (1C10, 25 μg i.p.) or the toll like receptor ligands, poly IC ([…], Invivogen) or lipopolysaccharide (20 μgm, Sigma). The mice had been given CFSE-labeled PICTL CD8^+ T cells i.v. 1 d earlier, or were naive animals. In some experiments, mice were sacrificed 3 d later, and T cell division and activation in spleen were analyzed by flow cytometry. Additionally, 7 d or 2 months later, 5×10^6 live J558 tumor cells were inoculated subcutaneously. 5×10^6 Meth A fibrosarcoma was used as a control tumor for challenge. Tumor cell growth was measured with calipers every other day. Mice were scored positive for tumor as soon as tumors became palpable and grew progressively. Mice were euthanized when tumor size exceeded 400 mm^2.
Mice vaccinated with J558 and α-Gal Cer were injected with ascites containing 1 mg of rat monoclonal anti-CD4 (clone GK 1.5) or anti-CD8 (clone 53-6.72). The mice received three daily injections, the first one i.v. one day before the challenge, and two i.p. injections on the day of the challenge and one day after the challenge. Control mice received 1 mg of Rat IgG (Jackson Laboratories). The depletion was monitored by staining with anti-CD4 and anti-CD8 antibodies followed by flow cytometry (BD PharMingen).
In vivo delivery of dying tumor cells, DC maturation stimuli, and tumor protection assay. Different doses of irradiated J558-Ld− cells were injected i.v. into naïve BALB/c mice either alone or with αGalCer (2 or 0.2 μg/mouse) or 24 (2 or 0.2 μg/mouse) as a DC maturation stimulus. We also compared the glycolipids to agonistic anti-CD40 mAb (1C10, 25 μg, i.p.) or the Toll-like receptor ligands, poly IC (50 μg i.p., Invivogen). 14 d later, 5×10^6 live J558 tumor cells were inoculated s.c. Tumor cell growth was measured with calipers every other day. Mice were scored positive for tumor, as soon as tumors became palpable and grew progressively. Mice were euthanized when tumor size exceeded 400 mm^2.

[1] = target: T1, human CD1d dimers / invariant T cell receptor of human NKT cells (Homo sapiens, UniProt P15813); assay: In vitro CD1d-dimer assay using a human NKT cell line; type: binding; details: dimers loaded with 40 μM glycolipid
T1 construct: soluble divalent human CD1d-IgG1 fusion protein; IgG1 (immunoglobulin fusion partner that makes the protein divalent); purchased BD Pharmingen / BD Biosciences (DimerX)
Method: One mg of soluble divalent human CD1d-IgG1 fusion protein (human CD1d-IgG1 dimers, BD Pharmingen) were incubated overnight with […] of each glycolipid at 32° C. and at neutral pH according to the manufacturer's protocol. The glycolipid-loaded CD1d-IgG1 dimers were incubated with human NKT cells at 4° C. for 60 minutes, followed by incubation with PE-coupled anti-mouse IgG1 mAb (A85-1). The cells were also surface stained with a PerCP-coupled anti-CD3 mAb (BD Pharmingen, San Diego, Calif.).
CD1d-dimer binding assay. CD1d dimer (DimerX, BD Biosciences) was incubated overnight with 40 μM of each glycolipid at 32° C. and at neutral pH according to the manufacturer's protocol. The loaded CD1d dimers were incubated with a human NKT cell line at 4° C. for 60 min, followed by incubation with APC-conjugated secondary antibody. The cells were also co-stained with mAbs against the invariant NKT cell receptor (Vα24/Vβ11). At least 2×10^5 lymphocyte-gated events were acquired to allow reliable estimation of NKT cells.

A20 tumor cells = assay: Tumor protection assay, A20; type: in vivo, mouse; details: A20 challenge s.c.
Method: Mice were also injected i.v. with PBS, 2 μg α-Gal Cer, 5×10^6 irradiated A20 cells with or without 2 μg α-Gal Cer i.v. Two weeks later, mice were challenged with a lethal tumorogenic dose of 5×10^6 live A20 s.c. The mice were monitored every other day for tumor growth and were scored positive when the tumors were palpable.

[2] = 0.2 μg/mouse with 1×10^7 irradiated J558Ld− tumor cells i.v.
[3] = 2 μg/mouse with 1×10^7 irradiated J558Ld− tumor cells i.v.

Molecule | protection from J558 tumor challenge (J558 tumor cells; [2]) [%] | protection from J558 tumor challenge (J558 tumor cells; [3]) [%] | mice protected by direct vaccination (J558 tumor cells; dying tumor cells with compound 24) | tumor growth after single agent alone (J558 tumor cells) | maturation stimulus compared with ligation of CD40, TLR4 and TLR3 (J558 tumor cells; irradiated tumor cells i.v.) | protective immunity to irradiated tumor injected i.v. (adjuvant comparison) (J558 tumor cells) | binding of loaded CD1d dimers to Vα24/Vβ11 invariant TCR expressing NKT cells [1] | mice fully protected after transfer of CD11c+ DCs (J558 tumor cells; 1.5×10^6 DCs from donors given dying J558− with α-Gal Cer, 10 of 17 mice) [%] | tumor immunity after depletion of CD4+ or CD8+ T cells (J558 tumor cells; 8 weeks after vaccination with J558 and α-Gal Cer) | dependence of vaccination on route (J558 tumor cells; J558 and α-Gal Cer, i.v. vs s.c.) | specificity of protection (J558 vs Meth A challenge) (J558 tumor cells; dying J558− and α-Gal Cer) | protection against MHC class I positive or negative J558 challenge (J558 tumor cells; dying MHC class I− J558 cells and α-Gal Cer) | tumor immunity in Jα281−/− mice (lack NKT cells) (J558 tumor cells; dying cells plus glycolipid) | duration of tumor immunity (J558 tumor cells; single vaccination with irradiated J558 and α-Gal Cer, challenge 2 and 4 months later) | therapeutic effect (J558 tumor cells; vaccinated 3 days after injection of live tumor cells) | mice protected and tumor-free after J558 challenge (J558 tumor cells; vaccination with irradiated J558− cells combined with α-Gal Cer i.v., 22 of 25 mice) [%] | protective immunity compared with anti-CD40, LPS and poly IC (J558 tumor cells; with irradiated J558− cells) | tumor growth after glycolipid alone (J558 tumor cells; α-Gal Cer alone i.v., challenge 5×10^6 live J558 s.c.) | tumor outcome after combined vaccination (A20 tumor cells; irradiated A20 cells and α-Gal Cer i.v.) | tumor outcome after glycolipid alone (A20 tumor cells; α-Gal Cer pretreatment alone)
3-O-sulfo-alpha-galactosylceramide [Compound 24] | 100 | 100 | 80-100% | grew progressively within 7-10 days | superior relative to other DC stimuli | only adjuvant that could independently induce protective immunity | to a lesser extent than α-GalCer | – | – | – | – | – | – | – | – | – | – | – | – | –
CCCCCCCCCCCCCCCCCCCCCCCCCC(=O)N[C@@H](CO[C@H]1O[C@H](CO)[C@H](O)[C@H](O)[C@H]1O)[C@H](O)[C@H](O)CCCCCCCCCCCCCC [α-GalCer, 2S,3S,4R-1-O(α-galactopyranosyl)-2(N-hexacosanoylamino)-1,3,4-octadecanetriol] | 100 | 100 | – | grew progressively within 7-10 days | – | only adjuvant that could independently induce protective immunity | – | 58 | significantly abrogated tumor immunity | effective only when tumor cells were injected by the i.v. and not the s.c. route | protected mice against a challenge of J558 but not Meth A cells | protected against the MHC class I^+ J558 cells but not to MHC class F J558 tumor cells | failed to develop immunity | long-lived tumor immunity | therapeutic response manifest when the tumor dose was 1×10^6 but not 5×10^6 cells | 88 | more efficient at inducing protective immunity than the other compounds tested | grew progressively within 7-10 days | protected and remained tumor-free | development of palpable tumors
